For one experiment, the system named is Akt. Nature of the experiment: Akt phosphorylation (immunoblot anti-Akt pS473) in C2C12 myotubes. Format: cell-based, mouse. Conditions: peptide incubated 8 hours (FIG. 6). Here is the method: In particular: HBD1 SEQ ID NO: 73 (C18:0-HLGLEEPKK). The Akt pathway is utilized by both insulin and IGF1 to ultimately induce GLUT4 translocation to the cell membrane to facilitate the uptake and metabolism of glucose.
(§1) For signaling studies the cells were prepared the same way except 6-well plates were used. After 6 days incubation in differentiating medium, the cells were washed with serum-free medium. The various treatments were then added in serum free medium containing 0.1% BSA. HBD1 peptides were added and incubated for 8 hours. When utilizing IGF-I, incubation was for 15 minutes after IGF-1 addition. Following incubation the cells were lysed in RIPA buffer and sonicated. The cell lysate was centrifuged and the supernatant analyzed for either Akt or AMPK by SDS PAGE using a 10% gel followed by immunoblotting with the appropriate antibody.
To examine the intracellular transduction pathways utilized by the HBD1 peptides, following treatment with HBD1 peptide SEQ ID NO: 73 (C18:0-HLGLEEPKK), cell lysate proteins were separated by SDS PAGE and immunoblotted with anti-Akt pS473 antibodies.

A further experiment concerns AMPK. Nature of the experiment: AMPK phosphorylation (immunoblot anti-pAMPK T172) in C2C12 myotubes. Format: cell-based, mouse. Conditions: C2C12 myotubes, peptide incubated 8 hours (FIG. 7). Here is the method:
In particular: HBD1 SEQ ID NO: 73 (C18:0-HLGLEEPKK). The AMPK pathway is both insulin and IGF1 independent, but acts ultimately to induce GLUT4 translocation to the cell membrane to facilitate the uptake and metabolism of glucose.
as §1
To examine further the intracellular transduction pathways utilized by the HBD1 peptides, following treatment with HBD1 peptide SEQ ID NO: 73 (C18:0-HLGLEEPKK), cell lysate proteins, were separated by SDS PAGE and immunoblotted with anti-pAMPK T172.

The subject of a further experiment is ob/ob mice. Nature of the experiment: Intraperitoneal glucose tolerance test (IPGTT) in ob/ob mice after 15 days of treatment. Format: in vivo, mouse. Conditions: 3 mg/kg subcutaneously twice daily for 15 days, overnight fasted, glucose 1 g/kg i.p., vs vehicle. The procedure: Data shown are blood glucose levels (Mean±SEM) 45 min after intraperitoneal glucose tolerance test (IPGTT). (n=5 in each group; ***: p value <0.001).
After being acclimatized 7 days to the laboratory conditions, nine-week-old male B6. V-Lepob/J. mice (Charles River) were subcutaneously administered with vehicle (NaCl 0.9%) or with a peptide as set forth in SEQ ID NO: 73 (C18:0-HLGLEEPKK) at 3 mg/kg (n=5 animals for each group) twice daily for 15 days. On day 15, fasted (overnight) mice were injected intraperitoneally with glucose at 1 g/kg. Plasma blood glucose (expressed as mmol/L) was recorded at 45 minutes post glucose injection.

The subject of the next experiment is 3T3-LI adipocytes. Nature of the experiment: [3H]-2-deoxyglucose uptake by fully differentiated 3T3-LI adipocytes. The experiment is classed as cell-based, mouse. Particulars: 3 μg/ml for 24 hours. The procedure: The cells were exposed to the test compounds at a concentration of 3 μg/ml for 24 hours before testing for [^3H]-2-deoxyglucose uptake.
3T3-LI cells are a mouse fibroblast cell line which when cultured under specific conditions, differentiate into adipocytes.
Differentiation of 3T3-LI cells into adipocytes was achieved using the following protocol. 3T3-L1 cells were seeded in 24-well plates and cultured in 3T3-L1 maintenance medium (DMEM containing 10% fetal bovine serum, 4 mM L-glutamine 1 mM, sodium pyruvate) until the cells were 100% confluent. The cells were then fed with 3T3-L1 maintenance medium and cultured for a further 48 h. To initiate differentiation into adipocytes, the medium was changed to Differentiation medium 1 (DMEM containing 10% fetal bovine serum, 4 mM L-glutamine, 1 mM sodium pyruvate, 0.5 mM IBMX, […]), and cultured for a further 2 days. The medium was then changed to Differentiation medium 2 (DMEM containing 10% fetal bovine serum, 4 mM L-glutamine, 1 mM sodium pyruvate, 1 mg/ml insulin), and cultured for a further 2 days. The medium was then changed to Adipocyte Maintenance medium (DMEM containing 10% fetal bovine serum, 4 mM L-glutamine, 1 mM sodium pyruvate), and cultured for a further 7 days. During this time, the medium was changed every other day. The now fully differentiated adipocytes were utilized for glucose uptake experiments (day 11 from initiation of differentiation). Stock solutions of the HBD1 peptides to be tested were prepared by dilution with 0.9% NaCl solution under sterile conditions in a laminar flow cabinet to a concentration of 1 mg/ml, based on net peptide content. The solutions were homogenized by gentle inversion. Test items were prepared from the stock solutions, and remaining stock solution was aliquoted and stored at −20° C. and used without repeated freeze-thaw cycles.
Glucose uptake experiments were carried our using the following protocol. Prior to beginning the experiment, 100 ml of Krebs Ringer bicarbonate buffer (KRBB)(25 mM Hepes pH 7.4, 118 mM NaCl, 5 mM NaHCO3, 4.7 mM KCl, 1.2 mM KH2PO4, 1.2 mM MgSO4, 2.5 mM CaCl2, 0.2% BSA—Filtered using a 0.2 μm filter) and 100 ml of Incubation medium (DMEM containing 4 mM L-glutamine, 1 mM sodium pyruvate, 1% penicillin streptomycin, 0.2% BSA—Filtered using a 0.2 μm filter) were pre-warmed to 37° C., and 500 ml of KRBB was chilled on ice. Stock solutions of test compounds were diluted to 3 μg/ml final concentrations in pre-warmed Incubation medium and in pre-warmed KRBB. Insulin (positive control), previously diluted 1:1000 in sterile 0.9% NaCl, was further diluted in 10 ml of both medium and buffer to a final concentration of 1 nM. All traces of the medium were carefully removed from the cells using a fine tip. […]

“Also recorded” adds a separate entry of the source. No end group written: not given here. *: point of attachment. Stearoyl = CCCCCCCCCCCCCCCCCC(=O)*

As to “C18:0-HLGLEEPKK (Stearoyl-HLGLEEPKK) [SEQ ID NO: 73]”, the “phosphorylated Akt (pS473)” value in the experiment with Akt was “dose-related increase in phosphorylated Akt; also recorded: dose-dependent phosphorylation (activation) of the Akt pathway”. Further, the “phosphorylated AMPK (T172)” value in the experiment on AMPK was “dose-dependent increase in phosphorylated AMPK; also recorded: dose-dependent phosphorylation (activation) of the AMPK pathway”. Further, the “blood glucose levels 45 min after intraperitoneal glucose tolerance test (IPGTT)” value with ob/ob mice is reported as “reduced the plasma glucose levels”; in the experiment on ob/ob mice (listed as acylated HBD1 (3-11) fragment) it was “improves glucose intolerance”. The “glucose uptake by 3T3-LI adipocytes” value in the experiment with 3T3-LI adipocytes is given as “stimulated increased glucose uptake”.
